Usually chromatographic logP stands for lipophilicity estimated from chromatographic retention.

Structures are written as SMILES.

The data set is described as follows: Log P by HPLC on reversed phase columns (EEC directive 79/831 Annex V.A8). It counts as physicochemical. Particulars: reversed phase HPLC column; method [a]: LC-UV, acidic range, 0.1% formic acid in water and acetonitrile as eluent. On the procedure: Log P values: […] If more than one Log P value is available within the same method, all the values are given and separated by “+”. Calibration was done with straight-chain alkan2-ones (with 3 to 16 carbon atoms) with known Log P values (measurement of Log P values using retention times with linear interpolation between successive alkanones). Lambda-max-values were determined using UV-spectra from 200 nm to 400 nm and the peak values of the chromatographic signals.
Consider `CC(O)(Cn1nc[nH]c1=S)c1ccc(Oc2ccc(Br)cc2)nc1C(F)(F)F` (centres unmarked) [I-S-01, 2-[2-[6-(4-bromophenoxy)-2-(trifluoromethyl)-3-pyridyl]-2-hydroxy-propyl]-4H-1,2,4-triazole-3-thione], for which the chromatographic logP came out at 3.21.
For `CC(O)(Cn1nc[nH]c1=S)c1ccc(Oc2ccccc2)nc1C(F)(F)F` (centres unmarked) [I-S-02, 2-[2-hydroxy-2-[6-phenoxy-2-(trifluoromethyl)-3-pyridyl]propyl]-4H-1,2,4-triazole-3-thione] the value was 2.66.
For `CC(O)(Cn1nc[nH]c1=S)c1ccc(Oc2ccc(Cl)cc2)nc1C(F)(F)F` (centres unmarked) [I-S-03, 2-[2-[6-(4-chlorophenoxy)-2-(trifluoromethyl)-3-pyridyl]-2-hydroxy-propyl]-4H-1,2,4-triazole-3-thione] the value was 3.11.
To `OC(Cn1nc[nH]c1=S)(c1ccc(Oc2ccc(Br)cc2)nc1C(F)(F)F)C1CC1` (centres unmarked) [I-S-04, 2-[2-[6-(4-bromophenoxy)-2-(trifluoromethyl)-3-pyridyl]-2-cyclopropyl-2-hydroxy-ethyl]-4H-1,2,4-triazole-3-thione] belongs 3.87; to `OC(Cn1nc[nH]c1=S)(c1ccc(Oc2ccccc2)nc1C(F)(F)F)C1CC1` (centres unmarked) [I-S-06, 2-[2-cyclopropyl-2-hydroxy-2-[6-phenoxy-2-(trifluoromethyl)-3-pyridyl]ethyl]-4H-1,2,4-triazole-3-thione], 3.27.

These data come from US20200095223A1, “NOVEL TRIAZOLETHIONE DERIVATIVES” (priority 2017, published 2020).
